Columns and labels:
Assay type in all cases: in vivo
[1] = tested on: field corn (Zea mays L., var. Dekalb 535, CORN); test: Post-emerge test, crop safety; conditions: post-emerge, 14 days after application, rating scale 0-100
Procedure, shortened: (§1)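 Rating: 0–100 visual injury, 14 DAA. Application: acetone, 187 l/ha, 15–1000 g ai/ha, flat-fan track sprayer with nozzle 40–45 cm above soil or canopy. Post-emerge runs used 0.25% v/v surfactant on 2–3 leaf plants.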

[2] = tested on: upland rice (Oryza sp., var. Tebonnet, RICE); test: Post-emerge test, crop safety; conditions: post-emerge, 14 days after application, rating scale 0-100
Procedure, shortened: as §1

[3] = tested on: common ragweed (Ambrosia artemisizfolia L., AMBEL); test: Pre-emerge test, greenhouse herbicide activity screening; conditions: rated 14 days after application, 0 = no damage, 100 = complete death
Procedure, shortened: (§2)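 Compounds in acetone were track-sprayed at 15–1000 g ai/ha: pre-emergence onto soil sown the previous day, then top-watered to incorporate and later bottom-watered; post-emergence onto 2–3 leaf plants with 0.25% v/v surfactant, bottom-watered only. Ratings on a 0–100 phytotoxicity scale were taken at day 14.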

[4] = tested on: large crabgrass (Digitaria sanguinalis, DIGSA); test: as above; conditions: rated 14 days after application, 0 = no damage, 100 = complete death
Procedure, shortened: as §2

[5] = tested on: velvetleaf (Abutilon theophrasti, ABUTH); test: as above; conditions: rated 14 days after application, 0 = no damage, 100 = complete death
Procedure, shortened: as §2

[6] = tested on: green foxtail (Setaria viridis, SETVI); test: as above; conditions: rated 14 days after application, 0 = no damage, 100 = complete death
Procedure, shortened: as §2

[7] = tested on: lambsquarters (Chenopodium album, CHEAL); test: as above; conditions: rated 14 days after application, 0 = no damage, 100 = complete death
Procedure, shortened: as §2

[8] = tested on: barnyardgrass (Echinochloa crus-galli, ECHCG); test: as above; conditions: rated 14 days after application, 0 = no damage, 100 = complete death
Procedure, shortened: as §2

[9] = tested on: johnsongrass (Sorghum halepense, SORHA); test: as above; conditions: rated 14 days after application, 0 = no damage, 100 = complete death
Procedure, shortened: as §2

[10] = tested on: ivyleaf morningglory (Ipomoea hederacea, IPOHE); test: as above; conditions: rated 14 days after application, 0 = no damage, 100 = complete death
Procedure, shortened: as §2

[11] = tested on: sicklepod (Cassia obtusifolia, CASOB); test: as above; conditions: rated 14 days after application, 0 = no damage, 100 = complete death
Procedure, shortened: as §2

[12] = tested on: common ragweed (Ambrosia artemisizfolia L., AMBEL); test: Post-emerge test, greenhouse herbicide activity screening; conditions: post-emerge, 14 days after application, rating scale 0-100
Procedure, shortened: (§3)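 Sandy loam pots; pre-emerge: sown 1 d pre-spray, surface-watered after, then bottom-watered. Post-emerge: sown 8–21 d before, 2–3 leaf stage, + 0.25% v/v NIS, bottom-watered. Acetone, 187 l/ha track spray, 15–1000 g ai/ha. 0–100 injury score, day 14.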

[13] = tested on: large crabgrass (Digitaria sanguinalis, DIGSA); test: as above; conditions: post-emerge, 14 days after application, rating scale 0-100
Procedure, shortened: as §3

[14] = tested on: velvetleaf (Abutilon theophrasti, ABUTH); test: as above; conditions: post-emerge, 14 days after application, rating scale 0-100
Procedure, shortened: as §3

[15] = tested on: green foxtail (Setaria viridis, SETVI); test: as above; conditions: post-emerge, 14 days after application, rating scale 0-100
Procedure, shortened: as §3

[16] = tested on: lambsquarters (Chenopodium album, CHEAL); test: as above; conditions: post-emerge, 14 days after application, rating scale 0-100
Procedure, shortened: as §3

[17] = tested on: redroot pigweed (Amaranthus retroflexus, AMARE); test: as above; conditions: post-emerge, 14 days after application, rating scale 0-100
Procedure, shortened: as §3

[18] = tested on: barnyardgrass (Echinochloa crus-galli, ECHCG); test: as above; conditions: post-emerge, 14 days after application, rating scale 0-100
Procedure, shortened: as §3

[19] = tested on: johnsongrass (Sorghum halepense, SORHA); test: as above; conditions: post-emerge, 14 days after application, rating scale 0-100
Procedure, shortened: as §3

[20] = tested on: ivyleaf morningglory (Ipomoea hederacea, IPOHE); test: as above; conditions: post-emerge, 14 days after application, rating scale 0-100
Procedure, shortened: as §3

[21] = tested on: sicklepod (Cassia obtusifolia, CASOB); test: as above; conditions: post-emerge, 14 days after application, rating scale 0-100
Procedure, shortened: as §3

[22] = tested on: redroot pigweed (Amaranthus retroflexus, AMARE); test: Pre-emerge test, greenhouse herbicide activity screening; conditions: rated 14 days after application, 0 = no damage, 100 = complete death
Procedure, shortened: as §3

[23] = tested on: field corn (Zea mays L., var. Dekalb 535, CORN); test: Pre-emerge test, crop safety; conditions: rated 14 days after application, 0 = no damage, 100 = complete death
Procedure, shortened: (§4)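 Plants grown in 10 cm pots of sandy loam mix received acetone-dissolved compounds through a moving flat-fan nozzle. Doses ranged from 15 to 1000 g ai/ha. Pre-emerge pots were seeded one day earlier, post-emerge pots 8–21 days earlier. Fourteen days on, each pot was graded 0–100 for damage.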

[24] = tested on: upland rice (Oryza sp., var. Tebonnet, RICE); test: Pre-emerge test, crop safety; conditions: rated 14 days after application, 0 = no damage, 100 = complete death
Procedure, shortened: as §4

`COc1c(Cl)cc(F)c(-n2c(=O)cc(C(F)(F)F)n(C)c2=O)c1NC(=O)c1ccc(Cl)c(Cl)c1` [2-59] was tested, and the “phytotoxicity rating CORN” value ([1]; 63 g ai/ha) was 70, the “phytotoxicity rating CORN” value ([1]; 250 g ai/ha) was 80 and the “phytotoxicity rating RICE” value ([2]; 63 g ai/ha) was 70. For the same compound, the “phytotoxicity rating RICE” value ([2]; 250 g ai/ha) was 80, the “Pre-emerge Herbicidal Activity, phytotoxicity rating (0-100), AMBEL” value ([3]; 63 g ai/ha) was 50 and the “Pre-emerge Herbicidal Activity, phytotoxicity rating (0-100), AMBEL” value ([3]; 250 g ai/ha) was 90. The “Pre-emerge Herbicidal Activity, phytotoxicity rating (0-100), DIGSA” value ([4]; 63 g ai/ha) was 70, the “Pre-emerge Herbicidal Activity, phytotoxicity rating (0-100), DIGSA” value ([4]; 250 g ai/ha) was 100 and the “Pre-emerge Herbicidal Activity, phytotoxicity rating (0-100), ABUTH” value ([5]; 63 g ai/ha) was 100. For the same compound, the “Pre-emerge Herbicidal Activity, phytotoxicity rating (0-100), ABUTH” value ([5]; 250 g ai/ha) was 100, the “Pre-emerge Herbicidal Activity, phytotoxicity rating (0-100), SETVI” value ([6]; 63 g ai/ha) was 100 and the “Pre-emerge Herbicidal Activity, phytotoxicity rating (0-100), SETVI” value ([6]; 250 g ai/ha) was 100. For the same compound, the “Pre-emerge Herbicidal Activity, phytotoxicity rating (0-100), CHEAL” value ([7]; 63 g ai/ha) was 100, the “Pre-emerge Herbicidal Activity, phytotoxicity rating (0-100), CHEAL” value ([7]; 250 g ai/ha) was 100 and the “Pre-emerge Herbicidal Activity, phytotoxicity rating (0-100), ECHCG” value ([8]; 63 g ai/ha) was 40. The “Pre-emerge Herbicidal Activity, phytotoxicity rating (0-100), ECHCG” value ([8]; 250 g ai/ha) was 9, the “Pre-emerge Herbicidal Activity, phytotoxicity rating (0-100), SORHA” value ([9]; 63 g ai/ha) was 40 and the “Pre-emerge Herbicidal Activity, phytotoxicity rating (0-100), SORHA” value ([9]; 250 g ai/ha) was 90. For the same compound, the “Pre-emerge Herbicidal Activity, phytotoxicity rating (0-100), IPOHE” value ([10]; 63 g ai/ha) was 20, the “Pre-emerge Herbicidal Activity, phytotoxicity rating (0-100), IPOHE” value ([10]; 250 g ai/ha) was 100 and the “Pre-emerge Herbicidal Activity, phytotoxicity rating (0-100), CASOB” value ([11]; 63 g ai/ha) was 30. The “Pre-emerge Herbicidal Activity, phytotoxicity rating (0-100), CASOB” value ([11]; 250 g ai/ha) was 100, the “phytotoxicity rating AMBEL” value ([12]; 63 g ai/ha) was 70 and the “phytotoxicity rating AMBEL” value ([12]; 250 g ai/ha) was 100. For the same compound, the “phytotoxicity rating DIGSA” value ([13]; 63 g ai/ha) was 0, the “phytotoxicity rating DIGSA” value ([13]; 250 g ai/ha) was 30 and the “phytotoxicity rating ABUTH” value ([14]; 63 g ai/ha) was 100. For the same compound, the “phytotoxicity rating ABUTH” value ([14]; 250 g ai/ha) was 100, the “phytotoxicity rating SETVI” value ([15]; 63 g ai/ha) was 20 and the “phytotoxicity rating SETVI” value ([15]; 250 g ai/ha) was 20. The “phytotoxicity rating CHEAL” value ([16]; 63 g ai/ha) was 100, the “phytotoxicity rating CHEAL” value ([16]; 250 g ai/ha) was 100 and the “phytotoxicity rating AMARE” value ([17]; 63 g ai/ha) was 100. The “phytotoxicity rating AMARE” value ([17]; 250 g ai/ha) was 100, the “phytotoxicity rating ECHCG” value ([18]; 63 g ai/ha) was 0 and the “phytotoxicity rating ECHCG” value ([18]; 250 g ai/ha) was 30. The “phytotoxicity rating SORHA” value ([19]; 63 g ai/ha) was 30, the “phytotoxicity rating SORHA” value ([19]; 250 g ai/ha) was 65 and the “phytotoxicity rating IPOHE” value ([20]; 63 g ai/ha) was 100. For the same compound, the “phytotoxicity rating IPOHE” value ([20]; 250 g ai/ha) was 100, the “phytotoxicity rating CASOB” value ([21]; 63 g ai/ha) was 90 and the “phytotoxicity rating CASOB” value ([21]; 250 g ai/ha) was 100. The “Pre-emerge Herbicidal Activity, phytotoxicity rating (0-100), AMARE” value ([22]; 63 g ai/ha) was 100, the “Pre-emerge Herbicidal Activity, phytotoxicity rating (0-100), AMARE” value ([22]; 250 g ai/ha) was 100 and the “Pre-emerge phytotoxicity rating (0-100), crop damage, CORN” value ([23]; 63 g ai/ha) was 10. For the same compound, the “Pre-emerge phytotoxicity rating (0-100), crop damage, CORN” value ([23]; 250 g ai/ha) was 70, the “Pre-emerge phytotoxicity rating (0-100), crop damage, RICE” value ([24]; 63 g ai/ha) was 25 and the “Pre-emerge phytotoxicity rating (0-100), crop damage, RICE” value ([24]; 250 g ai/ha) was 75.

Reference: US6355799B1, “Substituted benzene compounds, process for their preparation, and herbicidal and defoliant compositions containing them” (ISK Americas Incorporated, priority 1997, dated 2002)
